The source of these data is US20140323504A1, “Pyrazolo[4,3-c]Pyridine Derivatives As Kinase Inhibitors” (Cellzome Limited, priority 2011, published 2014).

For the test, the target named is T1, TEC (Homo sapiens, UniProt P42680).
T1 construct: endogenous in cells; host or cells: 1:1 mix of Jurkat and Ramos cell lysates
T1 sequence (P42680 1-631): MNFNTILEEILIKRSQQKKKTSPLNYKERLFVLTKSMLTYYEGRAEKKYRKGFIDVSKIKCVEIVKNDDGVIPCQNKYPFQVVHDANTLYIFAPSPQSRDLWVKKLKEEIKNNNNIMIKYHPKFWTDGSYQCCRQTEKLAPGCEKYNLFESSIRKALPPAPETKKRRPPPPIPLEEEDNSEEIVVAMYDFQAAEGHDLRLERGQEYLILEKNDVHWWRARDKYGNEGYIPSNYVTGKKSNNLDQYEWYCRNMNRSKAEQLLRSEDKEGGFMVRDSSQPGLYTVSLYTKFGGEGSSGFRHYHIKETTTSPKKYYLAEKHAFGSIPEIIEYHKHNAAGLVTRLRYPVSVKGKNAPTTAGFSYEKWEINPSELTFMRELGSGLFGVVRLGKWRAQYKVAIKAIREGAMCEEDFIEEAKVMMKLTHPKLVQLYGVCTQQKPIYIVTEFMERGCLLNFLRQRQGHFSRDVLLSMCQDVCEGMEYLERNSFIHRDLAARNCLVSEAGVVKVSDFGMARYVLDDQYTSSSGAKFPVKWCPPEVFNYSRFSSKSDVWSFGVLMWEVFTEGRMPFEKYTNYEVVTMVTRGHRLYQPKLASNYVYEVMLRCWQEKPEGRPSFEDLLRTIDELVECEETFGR
Kind of test: Kinobeads assay with quantitative mass spectrometry, TEC. Type of test: binding. The note with it: Jurkat/Ramos lysate, read-out: TEC inhibition value (IC50). The procedure: Selected compounds of the present invention as described in the previous examples were tested in a Kinobeads™ assay as described (WO-A 2006/134056; Bantscheff et al., 2007. Nature Bioteclmol. 25, 1035-1044).
Compounds were incubated with cell lysate aliquots (1:1 mix of Jurkat and Ramos cell lysates) for 45 minutes at 4° C. and allowed to bind to the proteins in the lysate sample. Then the Kinobeads™ affinity matrix was added to capture proteins that were not interacting with the previously added compound. After this two hour incubation step at 4° C. beads were separated from the lysate and bead bound proteins were eluted in SDS sample buffer and subsequently separated by SDS-Polyacrylamide gel electrophoresis. […] The TMT reagents are a set of multiplexed, amine-specific, stable isotope reagents that can label peptides in up to six different biological samples enabling simultaneous identification and quantitation of peptides. The combined samples were fractionated using reversed-phase chromatography at pH 11 and fractions were subsequently analyzed with a nano-flow liquid chromatography system coupled online to a tandem mass spectrometer (LC-MSMS) experiment followed by reporter ion quantification in the MSMS spectra (Ross et al., 2004. Mol. Cell. Proteomics 3(12):1154-1169; Dayon et al., 2008. Anal. Chem. 80(8):2921-2931; Thompson et al., 2003. Anal. Chem. 75(8):1895-1904). […]

Consider `C=CC(=O)Nc1cccc(Cn2ncc3cnc(Nc4cnn(C)c4)nc32)c1` [Example 1, N-(3-((6-((1-Methyl-1H-pyrazol-4-yl)amino)-1H-pyrazolo[3,4-d]pyrimidin-1-yl)methyl)phenyl)acrylamide], for which the half-maximal inhibitory concentration (IC50) turned out to be 12 nM.

Consider `C=CC(=O)Nc1cc(Cn2ncc3cnc(Nc4cnn(C)c4)nc32)ccc1F` [Example 2, […]], for which the IC50 was determined as 34 nM.
